Test results from article PMC7659345, “Viral rhodopsins 1 are an unique family of light-gated cation channels” (Nature Communications, 2020).

Experiments:
[1] = target: T1, VirChR1 (marine metagenome, UniProt Z9TV22U1G0); assay: UV-visible absorption of purified holoprotein; assay type: binding; conditions: covalent Schiff base (by homology); pH 7.5; all-trans-retinal added to E. coli culture
T1 sequence (Z9TV22U1G0 1-242): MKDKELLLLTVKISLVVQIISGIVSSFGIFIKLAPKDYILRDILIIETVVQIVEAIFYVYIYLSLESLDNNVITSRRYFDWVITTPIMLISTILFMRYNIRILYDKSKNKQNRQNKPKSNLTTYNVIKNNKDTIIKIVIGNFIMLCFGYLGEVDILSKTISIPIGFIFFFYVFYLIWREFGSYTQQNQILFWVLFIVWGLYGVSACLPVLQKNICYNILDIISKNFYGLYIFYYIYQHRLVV

[2] = target: T2, OLPVR1 (Organic Lake phycodnavirus 1, UniProt Z9N4O7KYY5); assay: X-ray crystal structure, […] A (type A, P21212) and […] A (type B, P1); assay type: binding; conditions: covalent Schiff base to K204; all-trans 15-anti; crystals grown in meso with monopalmitolein, pH 8.0 (7AKY); also 7AKX (monoolein, pH 7.0)
T2 construct: residues 2-223 resolved; one (P21212) or two (P1) molecules per asymmetric unit
T2 sequence (Z9N4O7KYY5 1-223): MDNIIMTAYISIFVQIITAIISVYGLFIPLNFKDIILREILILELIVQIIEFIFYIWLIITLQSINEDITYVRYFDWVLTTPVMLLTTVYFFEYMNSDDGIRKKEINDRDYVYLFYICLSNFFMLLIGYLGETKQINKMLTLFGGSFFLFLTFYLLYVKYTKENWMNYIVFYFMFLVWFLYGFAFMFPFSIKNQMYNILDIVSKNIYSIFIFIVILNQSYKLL

CC1=C(/C=C/C(C)=C/C=C/C(C)=C/C=O)C(C)(C)CCC1 [all-trans retinal]
UV-visible absorption of purified holoprotein [1]: Both OLPVR1 and VirChR1 show absorption spectra sensitive to blue light | X-ray crystal structure, 1.4 A (type A, P21212) and 1.6 A (type B, P1) [2]: all-trans retinal (ATR) covalently bound to K204 (K257 in CrChR2
